Reference: ChEMBL document CHEMBL1201862, “PubChem BioAssay data set” (2004)
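Cells were grown in 96-well plates and exposed to each compound for 48 hours at five concentrations; endpoints were interpolated linearly between bracketing concentrations, or set to the highest concentration if not reached. GI50 is the concentration that inhibits growth by half.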 The source made the active and inactive calls. Rule as the data show it: active = GI50 up to about 1.1 µM and inactive = higher.

Tests used:
Test in all cases: NCI anticancer screen, dose series, 48 h
BT-549 = test system: BT-549
CAKI-1 = test system: CAKI-1
CCRF-CEM = test system: CCRF-CEM
HT-29 = test system: HT-29
IGROV-1 = test system: IGROV-1
KM12 = test system: KM12
M14 = test system: M14
MDA-MB-231 = test system: MDA-MB-231
Malme-3M = test system: Malme-3M
NCI-H522 = test system: NCI-H522
OVCAR-3 = test system: OVCAR-3
OVCAR-4 = test system: OVCAR-4
SK-MEL-2 = test system: SK-MEL-2
SK-MEL-5 = test system: SK-MEL-5
SN12C = test system: SN12C
SNB-75 = test system: SNB-75
TK-10 = test system: TK-10
RXF 393 = test system: RXF 393
T47D = test system: T47D
UACC-62 = test system: UACC-62

Measured: GI50

COC(=O)C1(C(=O)OC)CC2=C(S(=O)(=O)c3ccccc3)C[C@@H](C#N)[C@H]2C1
inactive: BT-549 71.8 µM | CAKI-1 > 100 µM | CCRF-CEM > 100 µM | HT-29 > 100 µM | IGROV-1 52 µM | KM12 > 100 µM | M14 > 100 µM | MDA-MB-231 > 100 µM | Malme-3M > 100 µM | NCI-H522 43.7 µM | OVCAR-3 25.2 µM | OVCAR-4 > 100 µM | SK-MEL-2 > 100 µM | SK-MEL-5 > 100 µM | SN12C > 100 µM | SNB-75 > 100 µM | TK-10 > 100 µM

CC(=O)Oc1ccc(-c2c(OC(C)=O)c(OC(C)=O)c(-c3ccc(OC(C)=O)c(OC(C)=O)c3)c(OC(C)=O)c2OC(C)=O)cc1
inactive: CAKI-1 21.3 µM | CCRF-CEM 10.7 µM | HT-29 18.2 µM | IGROV-1 15.5 µM | KM12 14.4 µM | M14 18.1 µM | MDA-MB-231 18.6 µM | Malme-3M 16.1 µM | NCI-H522 5.46 µM | OVCAR-3 15.7 µM | OVCAR-4 17.6 µM | RXF 393 18.2 µM | SK-MEL-2 16.1 µM | SK-MEL-5 11.7 µM | SN12C 18.8 µM | SNB-75 13.6 µM | T47D 10.6 µM | TK-10 15.9 µM | UACC-62 17.8 µM

OC(C/C=N/Nc1ccccc1)(C(F)(F)Cl)C(F)(F)Cl
inactive: CAKI-1 7.43 µM | CCRF-CEM > 10 µM | HT-29 > 10 µM | IGROV-1 6.76 µM | KM12 > 10 µM | M14 > 10 µM | MDA-MB-231 4 µM | Malme-3M > 10 µM | NCI-H522 4.05 µM | OVCAR-3 4.84 µM | OVCAR-4 > 10 µM | RXF 393 6.75 µM | SK-MEL-2 > 10 µM | SK-MEL-5 > 10 µM | SN12C > 10 µM | SNB-75 9.91 µM | T47D 7.53 µM | TK-10 > 10 µM | UACC-62 > 10 µM

O=C1/C(=C/c2cccc3ccccc23)Cc2ccccc21
inactive: BT-549 13.2 µM | CAKI-1 25.6 µM | CCRF-CEM 59.2 µM | HT-29 32.7 µM | IGROV-1 41.4 µM | KM12 35.9 µM | M14 59.2 µM | OVCAR-3 27.1 µM | OVCAR-4 22.3 µM | RXF 393 16.7 µM | SK-MEL-5 29.9 µM | SN12C 49.5 µM | SNB-75 29.8 µM | TK-10 49.2 µM | UACC-62 22.4 µM
